The test system of data set [1] is Adjuvant Induced Arthritis in Rats. Put plainly: Adjuvant-induced arthritis model in rats (paw weight, anti-inflammatory activity). Type of data set: in vivo, male Sprague-Dawley rats. Particulars: oral gavage once per day for 11 days; for Raw Paw Weight: Day 11, group average. The method, then: Adjuvant-induced arthritis responds to both steroids and non-steroids. The degree of inflammation will be assessed by measuring differences in foot weight and/or the foot volume.
(§1) Rats weighting between 275-310 g were purchased from Animal Technologies Ltd., Kent, Wash. They were male Sprague-Dawley rats. The animals were kept individually in stainless steel cages with free access to water and feed (Harlan Teklan Rodent Diet). The light cycle was maintained at 12 hours light and 12 hours dark. The temperature was maintained at 22° C.±3° C. with a relative humidity of 40 to 70%.
The composite was prepared by combining the isolated compounds genistein, flavionic acid, diadzien, diadzin and the peptide having the sequence Tyrosine-Glycine-Serine-Arginine-Serine. One milligram of each was mixed into 9 ml of distilled water and 1 ml of alcohol. The mixture was then diluted in order to deliver by daily gavage one and 10 mcg doses per kilo body weight.
(§2) The test materials were delivered orally (by gavage) once per day for 11 days.
Male Sprague-Dawley rats (275-310 g) were sensitized by injecting Fruend's complete adjuvant (0.5% suspension of killed mycobacterium tuberculosis (H37RA, Difco, in mineral oil)). A 0.1 ml aliquot was administered intradermally at a plantar site on the right hind leg of each rat.
(§3) The test materials were given orally (by gavage) to each of 5 rats per treatment group once per day for 11 days. Administration of the test materials was initiated on the day of induction of inflammation.
(§4) The left hind paw was measured just before sensitization and again on Day 11. The plantar edema inhibitory rate and the body weight gain rate were determined by comparison with the non-sensitized rat groups.
The paw weights for each group were averaged. Anti-inflammatory activity was determined by comparing paw weights calculated as follows: [formula]
Hydrocortisone was used as a positive control. It is a common anti-inflammatory given to rheumatoid arthritis patients at a dose of 10 mg/kg body weight. The composite of the invention was given at 10 mcg/kg and 1 mcg/kg body weight.

A short description of data set [2]: 11-day body weight gain of rats in the adjuvant-induced arthritis study. Format: in vivo, male Sprague-Dawley rats. Particulars: for Avg. Final Body wt. / Avg. Weight Gain: oral gavage once per day for 11 days. The method, then:
as §1, §2, §3, §4

Structures are written as SMILES.

Regarding `C[C@]12CCC(=O)C=C1CC[C@@H]1[C@@H]2[C@@H](O)C[C@@]2(C)[C@H]1CC[C@]2(O)C(=O)CO` [Hydrocortisone], the “Raw Paw Weight” value in data set [1] (1 mcg/kg body wt.) amounted to 0.80 g; in data set [1] (10 mcg/kg body wt.) it was 0.76 g. For the same compound, the inhibition at 0.001 mg/kg in data set [1] (Rattus norvegicus, 264 h, 1 mcg/kg body wt., calculated from paw weights) is 50%. In data set [1] (Rattus norvegicus, 264 h, 10 mcg/kg body wt., calculated from paw weights), the inhibition at 0.01 mg/kg was 58%. The “Avg. Final Body wt.” value in data set [2] (1 mcg/kg body wt.) is listed as 331.0 g; in data set [2] (10 mcg/kg body wt.), 317.0 g. The results for the “Avg. Weight Gain” value in data set [2] (1 mcg/kg body wt.) and in data set [2] (10 mcg/kg body wt.) were 31.4 g and 23.6 g, respectively. Also, the “reduction in weight gain” value in data set [2] (10 mcg/kg body weight, 11 days, versus controls) is listed as about 50%.

A word on the inhibition: it is the relative decrease from the control value, in per cent.

Values taken from patent US20050261197A1, “Coffee bean extract, method of extraction and composition containing the same” (priority 2004, published 2005).
